Source: patent publication US20260026522A1, “METHODS AND DEVICE FOR CO-TREATMENT OF CROP PROTECTION CHEMICALS WITH PLANT GROWTH REGULATORS” (AGROFRESH INC., priority 2016, published 2026)

Assays:
[1] = system: Penicillium expansum and Botrytis cinerea; assay: Fungicide fogging of wounded, inoculated Golden Delicious apples: fungal lesion size; type: in vivo; details: 24 h fog at 20° C., measured Day 3 or 4
Description: Freshly harvested plants and crops, such as fruit crops (e.g. apple fruits), were wounded and inoculated with fungal pathogens. Immediately after harvest on Day 0, Golden Delicious apples were wounded on the left and/or the right sides of the fruit. The wounds were immediately inoculated with one or more fungal strains. For example, the wounds on the left side of the fruit were inoculated with Penicillium, while the wounds on the right side of the fruit were inoculated with Botrytis. After inoculation, the apples remained at 20° C. throughout the remainder of the experimental trial.
Inoculated fruits were separated in preparation for an experimental trial that comprised three replicates of 10-fruit cohorts each totaling 5.1 kg of Golden Delicious apples (see Table 1). After inoculation, the apples were held at 20° C. in a closed, controlled environment until fungicide treatment. Prior to fungicide treatment, a fruit cohort was removed from the controlled environment and transported to a sealed treatment chamber having a temperature of 20° C. The fruit cohorts were each treated with a single respective fungicide on Day 0 (i.e., day of harvest), as well as Days 1, 2, 3, and/or 4 after harvest (see Table 2).
More specifically, each fruit cohort was treated a single time for 24 hours with a specific fungicide solution comprising the following active ingredients: benzoxaborole (BOB), thiabendazole (TBZ), pyrimethanil (PYR), and fludioxonil (FDL) as described in Table 1 below. The fungicide solutions used to treat inoculated apples comprised the following concentration of active ingredients: a 100 g/L of benzoxaborole (BOB), thiabendazole (TBZ), and fludioxonil (FDL), or a 160 g/L of pyrimethanil (PYR), respectively (see Table 1).
Inoculated fruits were also treated with a propylene glycol-inoculated negative control (GLY IC). This propylene glycol-inoculated control treatment comprised only propylene glycol, a common fungicide treatment carrier, with no active ingredient (see Table 1). In addition, another cohort of inoculated fruits was not treated with a fungicide at all to produce an untreated inoculated control (UNTRT IC).
In this trial, replicate cohorts of Golden Delicious apples were treated by fogging with 167 μL of the benzoxaborole (BOB) solution, 270 μL of the thiabendazole (TBZ) solution, 410 μL of the pyrimethanil (PYR) solution, or 170 μL of the fludioxonil (FDL) solution, respectively (see Table 1). The fungicide fogging treatment was applied to the Golden Delicious apples in the sealed treatment chamber comprising a volume of 1.1 m^3 such that the final concentration of active ingredient (“ai”) of each fungicide applied to the Golden Delicious apples during the trial was 3.3 mg/kg of benzoxaborole (BOB), 8.0 mg/kg of thiabendazole (TBZ) solution, 8.5 mg/kg of pyrimethanil (PYR) solution, and 3.3 mg/kg of fludioxonil (FDL), respectively (see Table 1).
After 24 hours of fungicide treatment in the sealed chamber at 20° C., treated apples were returned back to the closed, controlled environment for storage. Storage of treated fruit occurred for at least 12 hours and for up to approximately 72 hours until Day 3 or Day 4 when fungal lesions on the treated fruit were measured (see Table 2). For example, inoculated fruit cohorts treated with fungicide on Day 0, where returned to the control chamber on Day 1 and stored there for at least 12 hours (e.g., approximately 48-72 hours) until their fungal lesions were measured on Days 3 or 4 (see Table 2). Inoculated fruit cohorts treated with fungicide on Day 1, where returned to the control chamber on Day 2 and stored there for at least 12 hours (e.g., approximately 24-48 hours) until their fungal lesions were measured on Days 3 or 4 (see Table 2). […]

Botrytis cinerea = assay: Fungicide fogging of wounded, inoculated Red Delicious apples: Botrytis lesion size; type: in vivo, Botrytis cinerea on Red Delicious apples; details: measured Day 4
Description: (§1) This experiment was conducted exactly the same as described above in Example 1 unless noted otherwise. For example, instead of Golden Delicious apples, this experiment was performed on Red Delicious apples, which are harvested later in the season than Golden Delicious apples. Freshly harvested Red Delicious apples were wounded on the left and right side with Penicillium and Botrytis fungal pathogens, respectively. After inoculation, the apples remained at 20° C. throughout the remainder of the experimental trial to measure growth of the Botrytis fungal pathogen. Inoculated fruits were separated in preparation for an initial trial which comprised three replicates of 10-fruit cohorts totaling 5.5 kg of Red Delicious apples, respectively (see Table 1).
(§2) In this trial, replicate cohorts of Red Delicious apples were fog treated with 250 μL of the benzoxaborole (BOB) solution, 620 μL of the thiabendazole (TBZ) solution, 410 μL of the pyrimethanil (PYR) solution, or 250 μL of the fludioxonil (FDL) solution, respectively (see Table 1). The fungicide fogging treatment was applied to the Red Delicious apples in the sealed treatment chamber comprising a volume of 1.1 m^3 such that the final concentration of active ingredient (“ai”) of each fungicide applied to the Red Delicious apples during the trial was 4.6 mg/kg of benzoxaborole (BOB), 11.2 mg/kg of thiabendazole (TBZ) solution, 11.8 mg/kg of pyrimethanil (PYR) solution, and 4.6 mg/kg of fludioxonil (FDL), respectively (see Table 1).
(§3) After 24 hours of fungicide treatment in the sealed chamber at 20° C., treated apples were returned back to the closed, controlled environment for storage. As described in Example 1, storage of treated Red Delicious apples occurred for at least 12 hours and for up to approximately 72 hours until Day 4 when fungal lesions on the treated Red Delicious apples were measured (see Table 2).

Penicillium expansum = assay: Fungicide fogging of wounded, inoculated Red Delicious apples: Penicillium lesion size; type: in vivo, Penicillium expansum on Red Delicious apples; details: for Fungal Lesion Diameter: Penicillium expansum, measured Day 4; for Inhibition of Penicillium expansum fungal growth compared to untreated and propylene glycol controls / Penicillium expansum lesion sizes, range over treatment days: treated on Days 0-3
Description: as §1, §2, §3
This experiment was conducted exactly the same as described above in Example 2 unless noted otherwise. In particular, freshly harvested Red Delicious apples were wounded on the left and right side with Penicillium and Botrytis fungal pathogens, respectively. After inoculation, the apples remained at 20° C. throughout the remainder of the experimental trial to measure growth of the Penicillium fungal pathogen.

[2] = Fungicide Fog Day 0, Penicillium and Botrytis lesions averaged
[3] = Fungicide Fog Day 1, Penicillium and Botrytis lesions averaged
[4] = Fungicide Fog Day 2, Penicillium and Botrytis lesions averaged
[5] = Fungicide Fog Day 0, 24 h fog at 20° C.
[6] = Fungicide Fog Day 1, 24 h fog at 20° C.
[7] = Fungicide Fog Day 2, 24 h fog at 20° C.
[8] = Fungicide Fog Day 3, 24 h fog at 20° C.

Row | Structure (SMILES) | Fungal Lesion Diameter [1, 2] [mm] | Fungal Lesion Diameter [1, 3] [mm] | Fungal Lesion Diameter [1, 4] [mm] | Fungal Lesion Diameter (Botrytis cinerea; [5]) [mm] | Fungal Lesion Diameter (Botrytis cinerea; [6]) [mm] | Fungal Lesion Diameter (Botrytis cinerea; [7]) [mm] | Fungal Lesion Diameter (Botrytis cinerea; [8]) [mm] | Fungal Lesion Diameter (Penicillium expansum; [5]) [mm] | Fungal Lesion Diameter (Penicillium expansum; [6]) [mm] | Fungal Lesion Diameter (Penicillium expansum; [7]) [mm] | Fungal Lesion Diameter (Penicillium expansum; [8]) [mm] | Inhibition of Penicillium expansum fungal growth compared to untreated and propylene glycol controls (Penicillium expansum) | Penicillium expansum lesion sizes, range over treatment days (Penicillium expansum)
1 | N#CC1=CN=CC1c1cccc2c1OC(F)(F)O2 (stereo not shown) [FDL, 4-(2,2-difluoro-1,3-benzodioxol-4-yl)-1H-pyrrole-3-carbonitrile] | 1.6 | 2.7 | 3.0 | 4.1 | 7.0 | 8.2 | 11.7 | 11.0 | 13.2 | 13.4 | 15.5 | – | –
2 | Cc1cc(C)nc(Nc2ccccc2)n1 [PYR, 4,6-Dimethyl-N-phenylpyrimidin-2-amine] | 0.4 | 1.3 | 3.6 | 9.2 | 10.4 | 12.4 | 12.5 | 17.2 | 17.1 | 18.3 | 18.3 | Neither treatments comprising pyrimethanil (PYR) nor thiabendazole (TBZ) showed a consistent increase in inhibition of Penicillium expansum fungal growth or any significant difference | 17.1-18.3 mm
3 | c1ccc2[nH]c(-c3cscn3)nc2c1 [TBZ, 4-(1H-1,3-Benzodiazol-2-yl)-1,3-thiazole] | 2.0 | 4.5 | 4.9 | 10.9 | 12.1 | 12.7 | 12.4 | 18.0 | 18.4 | 17.6 | 18.3 | Neither treatments comprising pyrimethanil (PYR) nor thiabendazole (TBZ) showed a consistent increase in inhibition of Penicillium expansum fungal growth or any significant difference | 17.6-18.4 mm
